Values quoted from earlier work as cited in article PMC9026741 (Bioorganic chemistry, 2020).

Molecular target: T1, Nrp1 (Homo sapiens, UniProt O14786)
T1 sequence (O14786 274-586): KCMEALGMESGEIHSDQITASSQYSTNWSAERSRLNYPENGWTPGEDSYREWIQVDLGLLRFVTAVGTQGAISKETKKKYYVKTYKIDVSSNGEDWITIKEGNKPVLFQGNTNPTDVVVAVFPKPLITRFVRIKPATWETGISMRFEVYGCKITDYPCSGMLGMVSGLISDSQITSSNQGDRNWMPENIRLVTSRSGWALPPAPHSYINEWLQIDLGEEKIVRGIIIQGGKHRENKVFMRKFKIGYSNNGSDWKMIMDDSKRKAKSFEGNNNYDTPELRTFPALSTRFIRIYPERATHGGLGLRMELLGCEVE
Details: Nrp1 over Nrp2

ATWLPPR
preference for Nrp1: two-fold preference for Nrp1
